Legend:
wild oat = experiment: Test B pre/postemergence wild oat; format: in vivo, Avena fatua
How it was run: (§1)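 Response is a visual 0-to-10 score relative to untreated plants, where 0 means no effect and 10 means complete control, taken twelve to sixteen days after application. Treatments went onto soil at planting and onto foliage of 1- to 4-leaf plants, using a surfactant-containing non-phytotoxic solvent.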

velvetleaf = experiment: Test B pre/postemergence velvetleaf; format: in vivo, Abutilon theophrasti
How it was run: as §1

giant foxtail = experiment: Test B pre/postemergence giant foxtail; format: in vivo, Setaria faberii
How it was run: as §1

sugar beet = experiment: Test B pre/postemergence sugar beet; format: in vivo, Beta vulgaris
How it was run: as §1

blackgrass = experiment: Test B pre/postemergence blackgrass; format: in vivo, Alopecurus myosuroides
How it was run: as §1

rape = experiment: Test B pre/postemergence rape; format: in vivo, Brassica napus
How it was run: as §1

duck salad = experiment: Test B flood test duck salad; format: in vivo, Heteranthera limosa
How it was run: (§2)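 Flood test on plants grown to the 2-leaf stage; treated plants kept in greenhouse twelve to sixteen days, then visually rated against controls on a 0 (no effect) to 10 (complete control) scale.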

cocklebur = experiment: Test B pre/postemergence cocklebur; format: in vivo, Xanthium strumarium
How it was run: as §1

rice = experiment: Test B flood test rice; format: in vivo, Oryza sativa
How it was run: as §2

wheat = experiment: Test B pre/postemergence wheat; format: in vivo, Triticum aestivum
How it was run: as §1

crabgrass = experiment: Test B pre/postemergence crabgrass; format: in vivo, Digitaria sanguinalis
How it was run: as §1

smallflower flatsedge = experiment: Test B flood test smallflower flatsedge; format: in vivo, Cyperus difformis
How it was run: as §2

soybean = experiment: Test B pre/postemergence soybean; format: in vivo, Glycine max
How it was run: as §1

surinam grass = experiment: Test B pre/postemergence surinam grass; format: in vivo, Brachiaria decumbens
How it was run: as §1

pigweed = experiment: Test B pre/postemergence pigweed; format: in vivo, Amaranthus retroflexus
How it was run: as §1

corn = experiment: Test B pre/postemergence corn; format: in vivo, Zea mays
How it was run: as §1

[1] = Postemergence, Rate 250 g/ha, scale 0 to 10
[2] = Postemergence, Rate 500 g/ha, scale of 0 to 10 where 0 is no effect and 10 is complete control
[3] = Preemergence, Rate 62 g/ha, scale of 0 to 10 where 0 is no effect and 10 is complete control
[4] = Preemergence, Rate 125 g/ha, scale of 0 to 10 where 0 is no effect and 10 is complete control
[5] = Preemergence, Rate 250 g/ha, scale 0 to 10, 0 is no effect, 10 is complete control
[6] = Preemergence, Rate 500 g/ha, scale 0 to 10, 0 is no effect, 10 is complete control
[7] = Rate 62 g/ha, Postemergence, scale 0 to 10 (0 no effect, 10 complete control)
[8] = Rate 125 g/ha, Postemergence, scale 0 to 10, 0 is no effect, 10 is complete control
[9] = Rate 62 g/ha, flood test species, Pre-emergence, visual evaluation after twelve to sixteen days
[10] = Rate 125 g/ha, under heading Pre-emergence, flood test species, visual evaluation after twelve to sixteen days
[11] = Rate 250 g/ha, Pre-emergence (flood test species), scale 0 to 10, 0 is no effect, 10 is complete control
[12] = Rate 500 g/ha, Pre-emergence, flood test species, scale 0 to 10 (0 no effect, 10 complete control)

COC(C)n1c(=O)on(C(=O)N(c2ccccc2)C(C)C)c1=O (centres unmarked) [Compound 441]
0: Wild oats plant response rating (wild oat; [1]) | Wild oats plant response rating (wild oat; [2]) | Plant response rating, Wild oats (wild oat; [3]) | Plant response rating, Wild oats (wild oat; [4]) | Wild oats plant response rating (wild oat; [5]) | Wild oats plant response rating (wild oat; [6]) | Wild oats plant response rating (wild oat; [7]) | Wild oats plant response rating (wild oat; [8]) | Velvetleaf plant response rating (velvetleaf; [1]) | Velvetleaf plant response rating (velvetleaf; [2]) | Plant response rating, Velvetleaf (velvetleaf; [3]) | Plant response rating, Velvetleaf (velvetleaf; [4]) | Velvetleaf plant response rating (velvetleaf; [5]) | Velvetleaf plant response rating (velvetleaf; [6]) | Velvetleaf plant response rating (velvetleaf; [7]) | Velvetleaf plant response rating (velvetleaf; [8]) | Giant foxtail plant response rating (giant foxtail; [1]) | Giant foxtail plant response rating (giant foxtail; [2]) | Plant response rating, Giant foxtail (giant foxtail; [3]) | Plant response rating, Giant foxtail (giant foxtail; [4]) | Giant foxtail plant response rating (giant foxtail; [5]) | Giant foxtail plant response rating (giant foxtail; [6]) | Giant foxtail plant response rating (giant foxtail; [7]) | Giant foxtail plant response rating (giant foxtail; [8]) | Sugarbeets plant response rating (sugar beet; [1]) | Sugarbeets plant response rating (sugar beet; [2]) | Plant response rating, Sugarbeets (sugar beet; [3]) | Plant response rating, Sugarbeets (sugar beet; [4]) | Sugarbeets plant response rating (sugar beet; [5]) | Sugarbeets plant response rating (sugar beet; [6]) | Sugarbeets plant response rating (sugar beet; [7]) | Sugarbeets plant response rating (sugar beet; [8]) | Blackgrass plant response rating (blackgrass; [1]) | Blackgrass plant response rating (blackgrass; [2]) | Plant response rating, Blackgrass (blackgrass; [3]) | Plant response rating, Blackgrass (blackgrass; [4]) | Blackgrass plant response rating (blackgrass; [5]) | Blackgrass plant response rating (blackgrass; [6]) | Blackgrass plant response rating (blackgrass; [7]) | Blackgrass plant response rating (blackgrass; [8]) | Rape plant response rating (rape; [1]) | Rape plant response rating (rape; [2]) | Plant response rating, Rape (rape; [3]) | Plant response rating, Rape (rape; [4]) | Rape plant response rating (rape; [5]) | Rape plant response rating (rape; [6]) | Rape plant response rating (rape; [7]) | Rape plant response rating (rape; [8]) | Plant response rating, Ducksalad (0 to 10 scale, 0 is no effect, 10 is complete control) (duck salad; [9]) | Ducksalad plant response rating (0 to 10 scale, 0 is no effect, 10 is complete control) (duck salad; [10]) | Ducksalad plant response rating (duck salad; [11]) | Ducksalad plant response rating (duck salad; [12]) | Cocklebur plant response rating (cocklebur; [1]) | Cocklebur plant response rating (cocklebur; [2]) | Plant response rating, Cocklebur (cocklebur; [3]) | Plant response rating, Cocklebur (cocklebur; [4]) | Cocklebur plant response rating (cocklebur; [5]) | Cocklebur plant response rating (cocklebur; [6]) | Cocklebur plant response rating (cocklebur; [7]) | Cocklebur plant response rating (cocklebur; [8]) | Plant response rating, Rice (0 to 10 scale, 0 is no effect, 10 is complete control) (rice; [9]) | Rice plant response rating (0 to 10 scale, 0 is no effect, 10 is complete control) (rice; [10]) | Rice plant response rating (rice; [11]) | Rice plant response rating (rice; [12]) | Wheat plant response rating (wheat; [1]) | Wheat plant response rating (wheat; [2]) | Plant response rating, Wheat (wheat; [3]) | Plant response rating, Wheat (wheat; [4]) | Wheat plant response rating (wheat; [5]) | Wheat plant response rating (wheat; [6]) | Wheat plant response rating (wheat; [7]) | Wheat plant response rating (wheat; [8]) | Crabgrass plant response rating (crabgrass; [1]) | Crabgrass plant response rating (crabgrass; [2]) | Plant response rating, Crabgrass (crabgrass; [3]) | Plant response rating, Crabgrass (crabgrass; [4]) | Crabgrass plant response rating (crabgrass; [5]) | Crabgrass plant response rating (crabgrass; [6]) | Crabgrass plant response rating (crabgrass; [7]) | Crabgrass plant response rating (crabgrass; [8]) | Plant response rating, S. Flatsedge (0 to 10 scale, 0 is no effect, 10 is complete control) (smallflower flatsedge; [9]) | S. Flatsedge plant response rating (0 to 10 scale, 0 is no effect, 10 is complete control) (smallflower flatsedge; [10]) | S. Flatsedge plant response rating (smallflower flatsedge; [11]) | S. Flatsedge plant response rating (smallflower flatsedge; [12]) | Soybean plant response rating (soybean; [1]) | Soybean plant response rating (soybean; [2]) | Plant response rating, Soybean (soybean; [3]) | Plant response rating, Soybean (soybean; [4]) | Soybean plant response rating (soybean; [5]) | Soybean plant response rating (soybean; [6]) | Soybean plant response rating (soybean; [7]) | Soybean plant response rating (soybean; [8]) | B. signalgrass plant response rating (surinam grass; Postemergence, Rate 250 g/ha, scale 0 to 10, 0 no effect, 10 complete control) | B. signalgrass plant response rating (surinam grass; [2]) | Plant response rating, B. signalgrass (surinam grass; [3]) | Plant response rating, B. signalgrass (surinam grass; [4]) | B. signalgrass plant response rating (surinam grass; [5]) | B. signalgrass plant response rating (surinam grass; [6]) | B. signalgrass plant response rating (surinam grass; [7]) | B. signalgrass plant response rating (surinam grass; [8]) | Redroot pigweed plant response rating (pigweed; [1]) | Redroot pigweed plant response rating (pigweed; [2]) | Plant response rating, Redroot pigweed (pigweed; [3]) | Plant response rating, Redroot pigweed (pigweed; [4]) | Redroot pigweed plant response rating (pigweed; [5]) | Redroot pigweed plant response rating (pigweed; [6]) | Redroot pigweed plant response rating (pigweed; [7]) | Redroot pigweed plant response rating (pigweed; [8]) | Corn plant response rating (corn; [1]) | Corn plant response rating (corn; [2]) | Plant response rating, Corn (corn; [3]) | Plant response rating, Corn (corn; [4]) | Corn plant response rating (corn; [5]) | Corn plant response rating (corn; [6]) | Corn plant response rating (corn; [7]) | Corn plant response rating (corn; [8])

— patent US6737383B1, “Herbicidal oxadiazolidines” (priority 1999, dated 2004)
